According to patent publication US20150253323A1, “METHODS AND KITS FOR HIGH THROUGHPUT SCREENING FOR COMPOUNDS TARGETING DNA-BINDING AND RNA-BINDING PROTEINS” (The Florida International University Board of Trustees, priority 2014, published 2015):
“Also recorded” adds a separate entry of the source. Counter-ions that a name gives are not always drawn. Starred links: 1 amine or outer side, 2 acyl side, 3 side chain; linkers in the order of their positions; H or OH if unused. Positions of bridges follow the written chain, without caps; N, C: chain ends. Non-standard residues stand in square brackets, D forms with d. Residues, ends and D or L forms follow the SMILES beside them. Chains are numbered I, II in the order given. Actinocin(9to1) = Cc1c2oc3c(C)ccc(C(=O)[*:1])c3nc-2c(C(=O)[*:2])c(N)c1=O; NMeV = CN[C@H](C(=O)O)C(C)C; Sar = CNCC(=O)O

T1: HMGA2-FL814 complex (Mus musculus, UniProt P52927)
T1 sequence (P52927 2-108 limits assumed): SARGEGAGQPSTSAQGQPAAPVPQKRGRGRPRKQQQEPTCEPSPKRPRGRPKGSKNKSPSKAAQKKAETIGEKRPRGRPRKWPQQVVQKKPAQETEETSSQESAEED

T2: HMGA2 (high mobility group protein AT-hook 2) (mammalian, UniProt P52926 P52926:2-109)
T2 sequence: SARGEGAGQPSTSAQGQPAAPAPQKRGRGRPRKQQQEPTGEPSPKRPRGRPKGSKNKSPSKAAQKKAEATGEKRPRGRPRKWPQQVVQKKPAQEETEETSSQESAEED


Assays:
[1] = tested on: HMGA2-FL814 interaction; assay: PDI-ELISA for HMGA2 binding to DNA oligomer FL814; set-up: species or system mammalian; conditions: for OD450 of the PDI-ELISA in the presence of the compound: 100 nM compound, 100 nM FL814, 1 μM HMGA2, 2×SSCT, OD450 without drug 1.44; for IC50: 25° C., read-out: IC50 for inhibition of binding of HMGA2 to DNA; for inhibition of HMGA2-FL814 interactions: compound at 100 nM in 2×SSCT, FIG. 12 / Table 1; for enhancement of HMGA2 binding to FL814 (OD450): titration, 100 nM FL814, 1 μM HMGA2, FIG. 14
[2] = tested on: 3T3-L1 cells; assay: Oil Red O staining of differentiated 3T3-L1 cells (adipogenesis); type: cell-based, mouse; conditions: 3T3-L1, Oil Red O absorbance 492 nm; read-out: inhibition IC50 of neutral lipids in the differentiated cells
Protocol: Mouse pre-adipocytes (3T3-L1 cells) were a gracious gift from Dr Jun Liu at Mayo Clinic. 3T3-L1 cells were maintained in DMEM supplemented with 10% FBS, 100 U/ml penicillin, 100 μg/ml streptomycin and 5 μg/ml plasmocin. The cells were grown under normal culture conditions of 5% CO2 and humidity. Cells were maintained for a minimum of three passages in linear growth prior to differentiation. To differentiate the 3T3-L1 pre-adipocytes into adipocytes, we used the protocol previously described by Zebisch et al. (Zebisch, K., et al. (2012)). Briefly, 3T3-L1 pre-adipocytes were sub-cultured in DMEM supplemented with 5% newborn calf serum, 100 U/ml penicillin, 100 μg/ml streptomycin and 5 μg/ml plasmocin (Basal Media 1—BM1). The cells were then plated at 6×10^5 cells per dish in 35-mm dishes, 3×10^5 cells per well in a 12-well plate, 1.5×10^5 cells in a 24-well plate or 3.0×10^4 cells per well in a 96-well plate. The cells were grown to confluency with BM1 replacement every other day. Following 48 h of confluency, 3T3-L1 cells were treated with Differentiation medium 1 (DM1), which is BM1 supplemented with […] iso-butyl-methylxanthine, 0.25 μM dexamethasone, 1 μg/ml insulin and 2 μg/ml rosiglitazone. After 48 h, the medium was replaced with differentiation medium 2 (DM2); this is BM1 supplemented with 1 μg/ml insulin. On the seventh day, the cells were placed in DMEM with FBS. The cells were cultured to the date indicated in the experiments below with media changes every other day. The presence of adipogenesis was confirmed by microscopic detection of adipose bodies in the cells. For our experiments, only cultures with >80% differentiation were used.
Following differentiation and drug treatment, Oil Red O staining was used to qualitatively and quantitatively assess the level of neutral lipids in the differentiated cells. For qualitative assessment by phase microscopy, cells were washed twice in PBS and then fixed with 10% formalin for 30 min at room temperature. Oil Red O was reconstituted at 300 mg per 100 ml of isopropanol. The Oil Red O solution was prepared for staining by adding 20 ml of deionized water to 30 ml of the Oil Red O stock solution and filtered. The cells were then incubated for 5 min in 60% isopropanol. The Oil Red O working solution was then added to cells for 5 min. The monolyers were then rinsed clean with deionized water. The cells were then visualized using phase microscopy on the EVOS XL Core microscope. For quantitative assessment of adipogenesis in 96-well formats, cells were lysed in dimethylsulfoxide (DMSO) following the water wash of Oil Red O stained cells. The DMSO released the intracellular Oil Red O into the solution. The absorbance (492 nm) was measured using the BioTek Synergy H1 plate reader.

[3] = tested on: FL814; assay: Competition dialysis assay, free FL814; type: binding
Protocol: (§1) The competition dialysis assays were carried out according to previously published procedures (Ren, J. and Chaires, J. B. (1999)). Briefly, a volume of 0.3 ml of FL814 (3 μM) or the HMGA2-FL814 complex (3 μM) was pipeted into a separate 0.3 ml disposable dialyzer. The dialysis units were then placed into a beaker with 200 ml of 2×SSCT containing 0.73 μM of TMPyP4. The dialysis was allowed to equilibrate with continuous stirring of 72 h at room temperature (24° C.). After the dialysis, the free, bound and total concentrations of TMPyP4 were determined spectrophotometrically.

[4] = biological target: T1, HMGA2-FL814 complex; assay: Competition dialysis assay, HMGA2-FL814 complex; conditions: 3 μM complex dialyzed against 0.73 μM TMPyP4, 72 h, 2×SSCT
Protocol: as §1

[5] = biological target: T2, HMGA2 (high mobility group protein …); assay: ELONA; duplex without hairpin loop; 100 nM DNA, 1 uM HMGA2; binding enhanced by TMPyP4; conditions: tags: purified as in Cui et al. 2007

Molecule	OD450 of the PDI-ELISA in the presence of the compound [1]	other results
Cl.NCc1ccc2ccc3cccc4ccc1c2c34 [1-Pyrenemethylamine hydrochloride, 1-pyrenemethylamine hydrochloride]	1.36	–
Cc1c2oc3c(C)ccc(C(=O)N[C@@H]4C(=O)N[C@H](C(C)C)C(=O)N5CCC[C@H]5C(=O)N(C)CC(=O)N(C)[C@@H](C(C)C)C(=O)O[C@@H]4C)c3nc-2c(C(=O)N[C@@H]2C(=O)N[C@H](C(C)C)C(=O)N3CCC[C@H]3C(=O)N(C)CC(=O)N(C)[C@@H](C(C)C)C(=O)O[C@@H]2C)c(N)c1=O [Actinomycin D, actinomycin D] (I: T[dV]P[Sar][NMeV] / II: T[dV]P[Sar][NMeV]; ester I:1-I:C, II:1-II:C; linker I:N-II:N via Actinocin(9to1))	1.03	–
COc1ccc2cc3[n+](cc2c1OC)CCc1cc2c(cc1-3)OCO2 [Berberine chloride, berberine chloride]	0.91	–
CC(=O)NCC(=O)O.CC(=O)NCC(=O)O.N=C(N)c1ccc(N=NNc2ccc(C(=N)N)cc2)cc1 [Berenil, berenil]	0.52	–
C=C1C(=O)OC(CCCCCCCC)C1C(=O)O (centres unmarked) [C-75]	–	IC50 [2]: 3700 ± 800 nM
COC1C(O)CC(OC2CC(Oc3cc4cc5c(c(O)c4c(O)c3C)C(=O)[C@@H](OC3CC(OC4CC(OC6CC(C)(O)C(OC(C)=O)C(C)O6)C(O)C(C)O4)C(O)C(C)O3)[C@H]([C@H](OC)C(=O)[C@@H](O)[C@@H](C)O)C5)OC(C)C2OC(C)=O)OC1C (some centres unmarked) [Chromomycin, chromomycin]	1.3	–
COc1cc2cc3c4cc(OC)c(OC)cc4cc[n+]3c(C)c2cc1OC.[Cl-] [Coralyne chloride, coralyne chloride]	1.38	–
N=C(N)c1ccc(-c2cc3ccc(C(=N)N)cc3[nH]2)cc1 [DAPI]	0.161	IC50 [1]: 60.6 ± 8.5 nM; inhibition of HMGA2-FL814 interactions [1]: potently inhibit; also recorded: completely inhibit
CCN1/C(=C/C=C/C=C/c2oc3ccccc3[n+]2CC)Oc2ccccc21.[I-] [DODC]	1.3	–
Cc1c2ccncc2c(C)c2c1[nH]c1ccccc12 [Ellipticine]	1.39	–
CN1CCN(c2ccc3[nH]c(-c4ccc5[nH]c(-c6ccc(O)cc6)nc5c4)nc3c2)CC1 [Hoechst 33258]	0.166	IC50 [1]: 73 ± 9.6 nM; inhibition of HMGA2-FL814 interactions [1]: potently inhibit; also recorded: completely inhibit
CN(C)c1ccc(C(=C2C=CC(=[N+](C)C)C=C2)c2ccc([N+](C)(C)C)cc2)cc1.[Cl-].[Cl-] [Methyl Green, methyl green]	1.06	–
CN(C)c1ccc2nc3ccc(=[N+](C)C)cc-3sc2c1 [Methylene Blue, methylene blue]	0.93	–
O=C1c2ccc3c4ccc5c6c(ccc(c7ccc(c2c37)C(=O)N1CCN1CCCCC1)c64)C(=O)N(CCN1CCCCC1)C5=O [PIPER, N,N′-bis[2-(1-piperidino)ethyl]-3,4,9,10-perylenetetracarboxylic diimide]	1.27	–
N=C(N)c1ccc(OCCCCCOc2ccc(C(=N)N)cc2)cc1 [Pentamidine, pentamidine isethionate salt]	0.65	–
Nc1ccc2cc3ccc(N)cc3nc2c1 [Proflavine hemisulfate, proflavine hemisulfate]	1.49	–
Nc1ccc2cc3ccc(N)cc3nc2c1 [Proflavine hydrochloride, proflavine hydrochloride]	–	OD450 of the PDI-ELISA in the presence of the compound ([1]; hydrochloride): 1.5
CCN(CC)CCCC(C)Nc1c2ccc(Cl)cc2nc2ccc(OC)cc12 (centres unmarked) [Quinacrine dihydrochloride, quinacrine dihydrochloride]	1.46	–
C[n+]1ccccc1-c1c2nc(c(-c3cccc[n+]3C)c3ccc([nH]3)c(-c3cccc[n+]3C)c3nc(c(-c4cccc[n+]4C)c4ccc1[nH]4)C=C3)C=C2.[Cl-].[Cl-].[Cl-].[Cl-] [TMPyP2]	1.7	enhancement of HMGA2 binding to FL814 (OD450) [1]: not able to stimulate
C[n+]1ccc(-c2c3nc(c(-c4cc[n+](C)cc4)c4ccc([nH]4)c(-c4cc[n+](C)cc4)c4nc(c(-c5cc[n+](C)cc5)c5ccc2[nH]5)C=C4)C=C3)cc1 [TMPyP4]	Very high	binding to FL814 ([3]; 3 μM FL814 dialyzed against 0.73 μM TMPyP4, 72 h, 2×SSCT): tightly; binding stoichiometry to FL814 ([3]; competition dialysis, 0.73 μM TMPyP4): two molecules of TMPyP4 bind to one molecule of FL814; binding to the FL814-HMGA2 complex [4]: tightly; enhancement of HMGA2 binding to double stranded oligomer (FL842/FL843) without loop ([1]; 100 nM annealing product of FL842 and FL843, 1 μM HMGA2, FIG. 15B): able to enhance the binding; also recorded: enhancement; enhancement of HMGA2 binding to FL814 (OD450) [1]: dramatically enhance; also recorded: significantly enhanced
CN1C(=Cc2cc[n+](C)c3ccccc23)Sc2ccccc21 [Thiazole orange, thiazole orange]	1.83	–
COc1cccc2c1C(=O)c1c(O)c3c(c(O)c1C2=O)C[C@@](O)(C(C)=O)C[C@@H]3O[C@H]1C[C@H](NCc2ccc(CN[C@H]3C[C@H](O[C@H]4C[C@](O)(C(C)=O)Cc5c(O)c6c(c(O)c54)C(=O)c4c(OC)cccc4C6=O)O[C@@H](C)[C@H]3O)cc2)[C@H](O)[C@H](C)O1 [WP631]	0.21	IC50 [1]: 41 ± 4.5 nM; inhibition of HMGA2-FL814 interactions [1]: potently inhibit; also recorded: completely inhibit
COc1cccc2c1C(=O)c1c(O)c3c(c(O)c1C2=O)C[C@@](O)(C(C)=O)C[C@@H]3O[C@H]1C[C@H](NCc2cccc(CN[C@@H]3C[C@@H](O[C@H]4C[C@](O)(C(C)=O)Cc5c(O)c6c(c(O)c54)C(=O)c4c(OC)cccc4C6=O)O[C@H](C)[C@@H]3O)c2)[C@H](O)[C@H](C)O1 [WP762]	0.56	IC50 [1]: 115 ± 19.7 nM; inhibition of HMGA2-FL814 interactions [1]: potently inhibit
O=c1cc(-c2ccccc2)oc2c1ccc1ccccc12 [a-Naphthoflavone, α-naphthoflavone]	1.91	–
O=c1cc(-c2ccccc2)oc2ccc3ccccc3c12 [b-Naphthoflavone, β-naphthoflavone]	1.56	–
N-methyl mesoporphyrin [NMM 580]	1.62	–
FL842/FL843 duplex (dsDNA) DNA 1: CCCCCCATATTCGCGATTATTGCGC DNA 2: GCGCAATAATCGCGAATATGGGGGG	–	binding result [5]: binds
